Source: patent publication US20250368666A1, “INDAZOLE COMPOUNDS” (TYRA BIOSCIENCES, INC., priority 2022, published 2025)
Structures can show the parent of a compound that is named as a salt.

How the values were obtained:
FGFR1 = target: T1, FGFR1 (Homo sapiens, UniProt P11362); test: Kinase binding assay (kinase-tagged T7 phage, affinity beads, qPCR), Kd; settings: read-out: FGFR1 (Kd nM)
T1 construct: made in house; host or cells: E. coli (BL21-derived), T7 phage
Method in brief: (§1)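 First, phage lysates carrying tagged kinase are made in E. coli at 32° C. Next, they are combined with blocked biotin-ligand streptavidin beads and compound at 0.9% final DMSO. Finally, eluted kinase is measured by qPCR and Kd is fitted with the Hill equation.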

FGFR3 = target: T2, FGFR3 (Homo sapiens, UniProt P22607); test: as above; settings: read-out: FGFR3 (Kd nM)
T2 construct: made in house; host or cells: E. coli (BL21-derived), T7 phage
Method in brief: as §1

[1] = system: MDA-MB-453 cell line (FGFR4-Y367C); test: Cancer cell line cell viability assay (Cell Titer-Glo), 120 hr; format: cell-based; settings: Homo sapiens
Method in brief: (§2)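 RPMI1640/10% FBS for RT112/84 and MDA-MB-453; IMDM/20% FBS for KG-1; IMDM/10% FBS for HuH7. Cells plated overnight, dosed from 3 μM in 4-fold, 9-point series, incubated at 37° C, then lysed with Cell Titer-Glo 2.0; IC50 by sigmoidal fit.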

[2] = system: KATO-III cell line (FGFR2 amplification); test: Cancer cell line cell viability assay (Cell Titer-Glo), 72 hr; format: cell-based; settings: Homo sapiens, KATO III
Method in brief: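 5,000-20,000 cells/well o/n; cpd 9-pt 4x dil from 3 μM, n=3; 37° C/5% CO2; CTG 2.0 lumi; % DMSO ctrl; 4PL IC50.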

[3] = system: KG-1 cell line (FGFR 1-fusion); test: as above; format: cell-based; settings: Homo sapiens, KG-1, KG-1 cell line (FGFR1-fusion)
Method in brief: as §2

[4] = system: RT112/84 cell line (FGFR3-fusion); test: as above; format: cell-based; settings: Homo sapiens, RT112/84, RT112/84 cell line (FGFR3-fusion)
Method in brief: as §2

T2 sequence (P22607 23-806): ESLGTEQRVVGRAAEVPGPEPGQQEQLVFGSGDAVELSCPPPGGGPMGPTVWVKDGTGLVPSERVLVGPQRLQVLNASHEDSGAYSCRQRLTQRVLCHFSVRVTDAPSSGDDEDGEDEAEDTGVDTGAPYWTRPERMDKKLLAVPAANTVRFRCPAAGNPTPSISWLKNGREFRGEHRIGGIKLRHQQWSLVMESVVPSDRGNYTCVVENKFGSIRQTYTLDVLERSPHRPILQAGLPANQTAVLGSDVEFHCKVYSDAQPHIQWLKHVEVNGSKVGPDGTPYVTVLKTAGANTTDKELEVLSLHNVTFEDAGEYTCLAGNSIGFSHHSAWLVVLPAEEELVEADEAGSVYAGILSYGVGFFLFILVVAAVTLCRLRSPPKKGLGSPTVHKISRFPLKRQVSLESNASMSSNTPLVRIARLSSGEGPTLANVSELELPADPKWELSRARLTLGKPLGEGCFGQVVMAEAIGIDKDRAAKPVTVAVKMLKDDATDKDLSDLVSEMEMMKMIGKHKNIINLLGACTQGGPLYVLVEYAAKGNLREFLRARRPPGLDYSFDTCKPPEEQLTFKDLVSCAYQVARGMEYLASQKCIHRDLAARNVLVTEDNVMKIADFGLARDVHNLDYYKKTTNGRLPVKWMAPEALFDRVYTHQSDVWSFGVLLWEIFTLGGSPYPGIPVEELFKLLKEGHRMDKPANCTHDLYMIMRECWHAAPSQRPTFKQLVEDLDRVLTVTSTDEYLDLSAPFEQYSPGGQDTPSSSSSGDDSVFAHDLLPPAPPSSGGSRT
T1 sequence (P11362 22-822): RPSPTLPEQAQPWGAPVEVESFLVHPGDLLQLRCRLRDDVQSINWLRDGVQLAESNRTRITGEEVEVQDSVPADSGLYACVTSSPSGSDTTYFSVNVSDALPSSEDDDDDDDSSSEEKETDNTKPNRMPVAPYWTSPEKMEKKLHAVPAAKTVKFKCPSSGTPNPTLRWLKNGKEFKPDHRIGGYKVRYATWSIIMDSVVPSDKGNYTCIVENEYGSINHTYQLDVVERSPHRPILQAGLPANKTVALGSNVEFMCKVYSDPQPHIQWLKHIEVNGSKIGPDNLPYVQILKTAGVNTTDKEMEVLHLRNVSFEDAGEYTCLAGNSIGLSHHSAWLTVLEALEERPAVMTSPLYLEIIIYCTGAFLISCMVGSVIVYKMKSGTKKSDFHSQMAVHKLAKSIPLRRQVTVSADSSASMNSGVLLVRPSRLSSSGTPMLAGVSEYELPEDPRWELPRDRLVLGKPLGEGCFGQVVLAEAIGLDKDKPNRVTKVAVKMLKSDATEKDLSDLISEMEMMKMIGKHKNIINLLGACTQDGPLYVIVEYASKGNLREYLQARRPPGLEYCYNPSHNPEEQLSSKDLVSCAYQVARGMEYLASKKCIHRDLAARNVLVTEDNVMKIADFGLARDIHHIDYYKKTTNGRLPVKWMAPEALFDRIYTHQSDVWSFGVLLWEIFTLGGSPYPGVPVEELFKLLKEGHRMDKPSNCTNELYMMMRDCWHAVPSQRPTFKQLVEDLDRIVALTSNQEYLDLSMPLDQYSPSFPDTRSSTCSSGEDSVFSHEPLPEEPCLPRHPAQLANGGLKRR

Row | Compound | Kd (FGFR1) | Kd (FGFR3) | IC50 [1] | IC50 [2] | IC50 [3] | IC50 [4]
1 | C[C@@H](Oc1ccc2[nH]nc(-c3cnc(N4CC(C)(N(C)CC5CC5)C4)c(F)c3)c2c1)c1c(Cl)cncc1Cl [Example 246, (R)-N-(cyclopropyl-methyl)-1-(5-(5-(1-(3,5-dichloropyridin-4-yl)ethoxy)-1H-indazol-3-yl)-3-fluoropyridin-2-yl)-N,3-dimethylazetidin-3-amine] | 1 to 50 nM | 1 to 50 nM | 200 to 1000 nM | 50 to 200 nM | 200 to 1000 nM | 0.1 to 50 nM
2 | CCC1(NCC2CC2)CN(c2ncc(-c3n[nH]c4ccc(O[C@H](C)c5c(Cl)cncc5Cl)cc34)cc2F)C1 [Example 247, N-(cyclopropylmethyl)-1-[5-[5-[(1R)-1-(3,5-dichloro-4-pyridyl)ethoxy]-1H-indazol-3-yl]-3-fluoro-2-pyridyl]-3-ethyl-azetidin-3-amine dihydrochloride] | 1 to 50 nM | 1 to 50 nM | 50 to 200 nM | 50 to 200 nM | 50 to 200 nM | 0.1 to 50 nM
3 | Cc1ncc(Cl)c([C@@H](C)Oc2ccc3[nH]nc(-c4cnc(N5CC(CC#N)(NCC6CC6)C5)c(F)c4)c3c2)c1Cl [Example 250, 2-[3-(cyclopropylmethyl-amino)-1-[5-[5-[(1R)-1-(3,5-di-chloro-2-methyl-4-pyridyl)ethoxy]-1H-indazol-3-yl]-3-fluoro-2-pyridyl]azetidin-3-yl]acetonitrile] | 50 to 300 nM | 1 to 50 nM | 200 to 1000 nM | 50 to 200 nM | 200 to 1000 nM | 0.1 to 50 nM
4 | C[C@@H](Oc1ccc2[nH]nc(-c3cnc(N4CC(CC#N)(N5CCCC5)C4)c(F)c3)c2c1)c1c(Cl)cncc1Cl [Example 251, (R)-2-(1-(5-(5-(1-(3,5-dichloropyridin-4-yl)ethoxy)-1H-indazol-3-yl)-3-fluoropyridin-2-yl)-3-(pyrrolidin-1-yl)azetidin-3-yl)acetonitrile] | 1 to 50 nM | 1 to 50 nM | 50 to 200 nM | 0.1 to 50 nM | 50 to 200 nM | 0.1 to 50 nM
5 | CC(C)C1(N)CN(c2ncc(-c3n[nH]c4ccc(O[C@H](C)c5c(Cl)cncc5Cl)cc34)cc2F)C1 [Example 255, (R)-1-(5-(5-(1-(3,5-dichloropyridin-4-yl)ethoxy)-1H-indazol-3-yl)-3-fluoropyridin-2-yl)-3-isopropylazetidin-3-amine] | 1 to 50 nM | 1 to 50 nM | 50 to 200 nM | 0.1 to 50 nM | 50 to 200 nM | 0.1 to 50 nM
6 | C[C@@H](Oc1ccc2[nH]nc(-c3cnc(N4CC(N)(C5CCC5)C4)c(F)c3)c2c1)c1c(Cl)cncc1Cl [Example 256, (R)-3-cyclobutyl-1-(5-(5-(1-(3,5-dichloropyridin-4-yl)ethoxy)-1H-indazol-3-yl)-3-fluoropyridin-2-yl)azetidin-3-amine] | 1 to 50 nM | 1 to 50 nM | 50 to 200 nM | 50 to 200 nM | 50 to 200 nM | 0.1 to 50 nM
7 | CC(C)CC1(N)CN(c2ncc(-c3n[nH]c4ccc(O[C@H](C)c5c(Cl)cncc5Cl)cc34)cc2F)C1 [Example 258, (R)-1-(5-(5-(1-(3,5-dichloropyridin-4-yl)ethoxy)-1H-indazol-3-yl)-3-fluoropyridin-2-yl)-3-isobutylazetidin-3-amine] | 1 to 50 nM | 1 to 50 nM | 200 to 1000 nM | 50 to 200 nM | 200 to 1000 nM | 0.1 to 50 nM
8 | C[C@@H](Oc1ccc2[nH]nc(-c3cnc(N4CC(N)(CCO)C4)c(F)c3)c2c1)c1c(Cl)cncc1Cl [Example 259, (R)-2-(3-amino-1-(5-(5-(1-(3,5-dichloropyridin-4-yl)ethoxy)-1H-indazol-3-yl)-3-fluoropyridin-2-yl)azetidin-3-yl)ethanol] | 1 to 50 nM | 1 to 50 nM | 0.1 to 50 nM | 0.1 to 50 nM | 50 to 200 nM | 0.1 to 50 nM
9 | CCC1(N)CN(c2ncc(-c3n[nH]c4ccc(O[C@H](C)c5c(Cl)cncc5Cl)cc34)cc2F)C1 [Example 260, 1-[5-[5-[(1R)-1-(3,5-dichloro-4-pyridyl)ethoxy]-1H-indazol-3-yl]-3-fluoro-2-pyridyl]-3-ethyl-azetidin-3-amine] | 1 to 50 nM | 1 to 50 nM | 0.1 to 50 nM | 50 to 200 nM | 50 to 200 nM | 0.1 to 50 nM
10 | C[C@@H](Oc1ccc2[nH]nc(-c3cnc(N4CC(C)(OCCN5CCCC5)C4)c(F)c3)c2c1)c1c(Cl)cncc1Cl [Example 261, (R)-5-(1-(3,5-dichloropyridin-4-yl)ethoxy)-3-(5-fluoro-6-(3-methyl-3-(2-(pyrrolidin-1-yl)ethoxy)azetidin-1-yl)pyridin-3-yl)-1H-indazole] | 1 to 50 nM | 1 to 50 nM | 50 to 200 nM | 0.1 to 50 nM | 50 to 200 nM | 0.1 to 50 nM
11 | C[C@@H](Oc1ccc2[nH]nc(-c3cnc(N4CC(N)(CC5CC5)C4)c(F)c3)c2c1)c1c(Cl)cncc1Cl [Example 262, (R)-3-(cyclopropylmethyl)-1-(5-(5-(1-(3,5-dichloropyridin-4-yl)ethoxy)-1H-indazol-3-yl)-3-fluoropyridin-2-yl)azetidin-3-amine] | 1 to 50 nM | 1 to 50 nM | 200 to 1000 nM | 50 to 200 nM | 50 to 200 nM | 0.1 to 50 nM
12 | C=CCC1(N)CN(c2ncc(-c3n[nH]c4ccc(O[C@H](C)c5c(Cl)cncc5Cl)cc34)cc2F)C1 [Example 264, (R)-3-ally1-1-(5-(5-(1-(3,5-dichloropyridin-4-yl)ethoxy)-1H-indazol-3-yl)-3-fluoropyridin-2-yl)azetidin-3-amine] | 1 to 50 nM | 1 to 50 nM | 50 to 200 nM | 50 to 200 nM | 50 to 200 nM | 0.1 to 50 nM
13 | C[C@@H](Oc1ccc2[nH]nc(-c3cnc(N4CC(N)(CC(C)(C)O)C4)c(F)c3)c2c1)c1c(Cl)cncc1Cl [Example 266, (R)-1-(3-amino-1-(5-(5-(1-(3,5-dichloropyridin-4-yl)ethoxy)-1H-indazol-3-yl)-3-fluoropyridin-2-yl)azetidin-3-yl)-2-methylpropan-2-ol] | 1 to 50 nM | 1 to 50 nM | > 1000 nM | 50 to 200 nM | 200 to 1000 nM | 0.1 to 50 nM
14 | C[C@@H](Oc1ccc2[nH]nc(-c3ccc(N4CC(N)(CCO)C4)nn3)c2c1)c1c(Cl)cncc1Cl [Example 267, (R)-2-(3-amino-1-(6-(5-(1-(3,5-dichloropyridin-4-yl)ethoxy)-1H-indazol-3-yl)pyridazin-3-yl)azetidin-3-yl)ethanol] | 1 to 50 nM | 1 to 50 nM | 200 to 1000 nM | 50 to 200 nM | > 1000 nM | 0.1 to 50 nM
15 | C[C@@H](Oc1ccc2[nH]nc(-c3ccc(N4CC(C)(OCCN5CCCC5)C4)nn3)c2c1)c1c(Cl)cncc1Cl [Example 269, (R)-5-(1-(3,5-dichloropyridin-4-yl)ethoxy)-3-(6-(3-methyl-3-(2-(pyrrolidin-1-yl)ethoxy)azetidin-1-yl)pyridazin-3-yl)-1H-indazole] | 1 to 50 nM | 1 to 50 nM | 200 to 1000 nM | 0.1 to 50 nM | 50 to 200 nM | 0.1 to 50 nM
16 | C[C@@H](Oc1ccc2[nH]nc(-c3cnc(N4CC(N)(CCS(C)(=O)=O)C4)c(F)c3)c2c1)c1c(Cl)cncc1Cl [Example 270, (R)-1-(5-(5-(1-(3,5-dichloropyridin-4-yl)ethoxy)-1H-indazol-3-yl)-3-fluoropyridin-2-yl)-3-(2-(methylsulfonyl)ethyl)azetidin-3-amine] | 1 to 50 nM | 1 to 50 nM | 0.1 to 50 nM | 0.1 to 50 nM | 50 to 200 nM | 0.1 to 50 nM
17 | CC(C)=CCC1(N)CN(c2ncc(-c3n[nH]c4ccc(O[C@H](C)c5c(Cl)cncc5Cl)cc34)cc2F)C1 [Example 271, (R)-1-(5-(5-(1-(3,5-dichloropyridin-4-yl)ethoxy)-1H-indazol-3-yl)-3-fluoropyridin-2-yl)-3-(3-methylbut-2-en-1-yl)azetidin-3-amine] | 1 to 50 nM | 1 to 50 nM | 0.1 to 50 nM | 50 to 200 nM | 200 to 1000 nM | 0.1 to 50 nM
18 | C[C@@H](Oc1ccc2[nH]nc(-c3ccc(N4CC(N)(CC5CC5)C4)nn3)c2c1)c1c(Cl)cncc1Cl [Example 272, (R)-3-(cyclopropylmethyl)-1-(6-(5-(1-(3,5-dichloropyridin-4-yl)ethoxy)-1H-indazol-3-yl)pyridazin-3-yl)azetidin-3-amine] | 1 to 50 nM | 1 to 50 nM | 200 to 1000 nM | 50 to 200 nM | 50 to 200 nM | 0.1 to 50 nM
19 | COCCC1(N)CN(c2ncc(-c3n[nH]c4ccc(O[C@H](C)c5c(Cl)cncc5Cl)cc34)cc2F)C1 [Example 273, (R)-1-(5-(5-(1-(3,5-dichloropyridin-4-yl)ethoxy)-1H-indazol-3-yl)-3-fluoropyridin-2-yl)-3-(2-methoxy-ethyl)azetidin-3-amine] | 1 to 50 nM | 1 to 50 nM | 0.1 to 50 nM | 0.1 to 50 nM | 0.1 to 50 nM | 0.1 to 50 nM
